Source: article PMC10122656, “Siglec-6 mediates the uptake of extracellular vesicles through a noncanonical glycolipid binding pocket” (Nature Communications, 2023)
Several values for one entry are separate records, joined by “and”; a condition that tells them apart may be missing. Identical values can stand only once.

Columns and labels:
[1] = target: T1, Siglec-7 WT CHO cells (Homo sapiens, UniProt Q9Y286); assay: Cell assay (liposome/EV binding, flow cytometry); assay type: cell-based; details: for log10(MFI AF647) of GLL relative to log10(MFI AF647) of the same GLL against UT CHO cells (Fig. 2a): Sig-7 WT†, † after treatment of cells with neuraminidase, 3 mol% ganglioside liposomes, replicates
T1 construct: expressed in transfected cells
Experimental: Stock lipids (DSPC, Cholesterol, PEG45–DSPE) solutions were prepared by solvating the lipids in chloroform. An appropriate volume of each lipid solution was transferred to a glass test tube to reach the desired mol% of the component. The chloroform was then removed under N2 gas to yield a lipid thin film. Once dry, 100 µL of DMSO was added to the lipid-containing test tube and then the functional lipids (ganglioside, AF647–PEG45–DSPE, Siglec ligand–PEG45–DSPE, pHrodo–PEG45–DSPE, NGL) was added from their respect DMSO stock solution. The lipid mixture was then stored at −80 °C until completely frozen at which point excess DMSO was removed via lyophilization. Dry lipids were then stored at −80 °C until they were extruded. Lipid suppliers can be found in Supplementary Table 4.
Dry lipids were then hydrated in 1 mL of PBS. The lipids were then sonicated in a bath sonicator in a cycle of 1 min on, 5 min off for a total of five cycles. Liposomes were then extruded using an Avanti mini extruder first using an 800 nm filter and then a 100 nm filter yielding liposomes that were 130 ± 35 nm (Supplementary Table 5) measured using a Malvern Panalytical Zetasizer Nano S. Liposomes were stored at 4 °C.
200,000 cells/well were plated into a 96-well U-bottom microplate and centrifuged at 300 × g for 5 min. The cells were then resuspended in 50 µL of 50 µM liposome/50 µg/mL (protein concentration) of EV solution in DMEM F12 5% FBS and incubated at 37 °C for 30 min. Excess liposomes were then removed via centrifuged at 300 × g for 5 min followed by washing the cells with FACS solution. The cells were then resuspended in (1:250 V/V) anti-Siglec-flow buffer (1% V/V FBS, 500 µM, EDTA Hank’s Balanced Salt Solution pH 7.4), solution and left to rest on ice for 30 min. The cells were then centrifuged again at 300 × g for 5 min and the cells were resuspended in FACS buffer solution and were then ready for analysis by flow cytometry. Information regarding antibody clone, catalog number supplier, label isotype, and dilution can be found in Supplementary Table 6. The Siglec-positive cells were gated on for liposome-binding analysis (Supplementary Fig. 1b).
Flow cytometry measurements were collected on a 5-laser Fortessa X-20 (BD Bioscience). All the resulting data were analyzed using FlowJo (10.5.3) software (BD Biosciences).
Cells were harvested and resuspended in complete media with either Neuraminidase A or S. The cells were then placed in a 37 °C shaking incubator for 1 h. The cells were then washed with complete media and then the liposome binding assay was performed as described above.

[2] = target: T2, Siglec-7-Fc WT (Homo sapiens, UniProt Q9Y286); assay: Liposome over lectin assay (LOLA); assay type: binding; details: Siglec-7 WT; replicates
T2 construct: the Siglecs as Fc chimeras; made in house; host or cells: WT CHO cells
Experimental: (§1) Siglec-Fc constructs designed by Rodrigues et al.[30] were used in this work. Siglec-Fc constructs were expressed using WT CHO cells in cell culture media as described above with 1% HEPES. Cells incubated as described above for one-week post confluency. The supernatant was harvested and stored at 4 °C.
(§2) The purification was heavily inspired by Rodrigues et al.[30]. The purification of the Siglec-Fcs from supernatant began with Ni^2+ affinity chromatography using an AKTA FPLC equipped with a HisTrap Excel column (GE). The column was equilibrated with fifteen column volumes (CVs) of equilibrium buffer (500 mM NaCl, 20 mM NaPO4H2, pH 7.4). The Siglec-Fc containing supernatant was then loaded in its entirety onto the column. The column was then washed with fifteen CVs of wash buffer (500 mM NaCl, 30 mM imidazole, 20 mM NaPO4H2, pH 7.4). The Siglec-Fc was then eluted in 20 in 1 mL fractions with twenty CVs of elution buffer (500 mM NaCl, 500 mM imidazole, 20 mM NaPO4H2, pH 7.4). Fractions containing Siglec-Fc were compiled and then prepared for the next stage of purification by diluting the fractions 1:4 with buffer W (100 mM Tris–HCl, 150 mM NaCl, 1 mM EDTA, pH 8.0). A Strep-Tactin column (IBA life sciences) was washed with fifteen CVs of buffer W. The Siglec-Fc-buffer W solution was then loaded in its entirety onto the column. The bound Siglec-Fc was then washed with fifteen CVs of buffer W. Siglec-Fc was eluted from the column with 15 column volumes of buffer E (100 mM Tris–HCl, 150 mM NaCl, 1 mM EDTA, 10 mM d-Desthiobiotin, pH 8.0). Fractions containing Siglec-Fc were pooled and dialyzed against PBS to remove any d-Desthiobiotin. After dialysis, Siglec-Fcs were concentrated using an ultra-centrifugal device (30 kDa MWCO) and aliquoted into 5 µg aliquots, and frozen. The Siglec-Fcs were then lyophilized overnight, and the lyophilized Siglec-Fcs were stored at −20 °C.
(§3) Siglec-Fc in PBS was adsorbed to a 96-well flat-bottom fluorescent microplate by adding 1 µg/well and incubating the plate at 4 °C overnight. The plate was then washed with PBS followed by blocking with 5% (m/V) BSA in PBS for 1 h at room temperature. The plate was again washed with PBS and 100 µM liposome in PBS was added to each well. The plate was then incubated at 37 °C for 30 min followed by washing with PBS. PBS was then added to the plate and the fluorescence intensity (λex 640 nm, λem 680 nm) of each well was measured using a Molecular Devices SpectraMAX ® iD5.

[3] = target: Siglec-1-Fc WT (Homo sapiens, UniProt Q9BZZ2); assay: Liposome over lectin assay (LOLA); assay type: binding; details: Siglec-1 WT; replicates
Experimental: as §1, §2, §3

[4] = target: T3, R122A Siglec-6-Fc (Homo sapiens, UniProt O43699, R122A); assay: Liposome over lectin assay (LOLA); assay type: binding; details: Siglec-6 R (arginine mutant); replicates
T3 construct: the Siglecs as Fc chimeras; made in house; host or cells: WT CHO cells
Experimental: as §1, §2, §3

[5] = target: T4, Siglec-6-Fc WT (Homo sapiens, UniProt O43699); assay: Liposome over lectin assay (LOLA); assay type: binding; details: Siglec-6 WT; replicates
T4 construct: the Siglecs as Fc chimeras; made in house; host or cells: WT CHO cells
Experimental: as §1, §2, §3

[6] = target: T5, Siglec-7-Fc R124A (Homo sapiens, UniProt Q9Y286, R124A); assay: Liposome over lectin assay (LOLA); assay type: binding; details: Siglec-7 R (arginine mutant); replicates
T5 construct: the Siglecs as Fc chimeras; made in house; host or cells: WT CHO cells
Experimental: as §1, §2, §3

[7] = system: Siglec-1-Fc R116A; assay: Liposome over lectin assay (LOLA); assay type: binding, human; details: Siglec-1 R (arginine mutant); replicates
Experimental: as §1, §2, §3

T3 sequence (O43699 27-347 R122A limits assumed): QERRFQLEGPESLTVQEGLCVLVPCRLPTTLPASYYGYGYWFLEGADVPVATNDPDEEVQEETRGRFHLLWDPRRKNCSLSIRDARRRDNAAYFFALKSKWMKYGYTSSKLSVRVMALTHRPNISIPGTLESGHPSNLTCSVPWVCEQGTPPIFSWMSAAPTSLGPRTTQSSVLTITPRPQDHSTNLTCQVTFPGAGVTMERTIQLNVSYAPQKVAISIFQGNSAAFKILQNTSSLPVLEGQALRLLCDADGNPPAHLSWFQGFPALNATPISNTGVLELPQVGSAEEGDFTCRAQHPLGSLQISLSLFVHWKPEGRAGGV
T5 sequence (Q9Y286 19-353 R124A limits assumed): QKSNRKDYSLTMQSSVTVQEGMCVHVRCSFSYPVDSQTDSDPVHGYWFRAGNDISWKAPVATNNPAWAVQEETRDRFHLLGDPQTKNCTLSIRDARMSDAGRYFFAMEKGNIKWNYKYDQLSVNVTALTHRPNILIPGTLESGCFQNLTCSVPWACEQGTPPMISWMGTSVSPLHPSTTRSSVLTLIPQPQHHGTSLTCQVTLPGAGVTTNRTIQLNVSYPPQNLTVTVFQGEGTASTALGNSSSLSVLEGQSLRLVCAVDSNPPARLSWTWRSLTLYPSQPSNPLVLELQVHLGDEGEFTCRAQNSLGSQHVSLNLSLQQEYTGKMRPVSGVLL
Siglec-1-Fc WT, sequence (Q9BZZ2 20-136 limits assumed): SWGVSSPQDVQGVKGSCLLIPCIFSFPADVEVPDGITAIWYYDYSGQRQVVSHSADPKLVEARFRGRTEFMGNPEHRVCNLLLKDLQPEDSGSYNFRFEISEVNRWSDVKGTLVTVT
Siglec-1-Fc R116A, sequence (Q9BZZ2 20-136 R116A limits assumed): as the sequence (Q9BZZ2 20-136 limits assumed) above, with R97A counted along it
T1 sequence (Q9Y286 19-467): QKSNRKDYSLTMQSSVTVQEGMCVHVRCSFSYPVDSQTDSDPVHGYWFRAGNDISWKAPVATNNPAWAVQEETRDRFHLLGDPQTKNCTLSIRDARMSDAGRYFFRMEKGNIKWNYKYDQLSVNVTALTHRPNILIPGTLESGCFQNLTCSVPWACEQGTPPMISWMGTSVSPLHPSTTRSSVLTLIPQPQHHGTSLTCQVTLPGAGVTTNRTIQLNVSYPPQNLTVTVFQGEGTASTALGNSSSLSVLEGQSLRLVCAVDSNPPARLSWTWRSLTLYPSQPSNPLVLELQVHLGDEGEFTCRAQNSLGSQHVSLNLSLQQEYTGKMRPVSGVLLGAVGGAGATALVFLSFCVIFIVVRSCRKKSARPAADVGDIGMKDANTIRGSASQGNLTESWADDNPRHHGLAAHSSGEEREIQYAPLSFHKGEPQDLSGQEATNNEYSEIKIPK
T2 sequence (Q9Y286 19-353 limits assumed): as the sequence (Q9Y286 19-353 R124A limits assumed) above, with A106R counted along it
T4 sequence (O43699 27-347 limits assumed): as the sequence (O43699 27-347 R122A limits assumed) above, with A96R counted along it

| Substance | log10(MFI AF647) of GLL relative to log10(MFI AF647) of the same GLL against UT CHO cells (Fig. 2a) [1] | LOLA: GLL binding, fluorescence plate reader (Fig. 2e) [2] | LOLA: GLL binding, fluorescence plate reader (Fig. 2e) [3] | LOLA: GLL binding, fluorescence plate reader (Fig. 2e) [4] | LOLA: GLL binding, fluorescence plate reader (Fig. 2e) [5] | LOLA: GLL binding, fluorescence plate reader (Fig. 2e) [6] | LOLA: GLL binding, fluorescence plate reader (Fig. 2e) [7] | GLL binding to Siglec-7 with increasing ganglioside content (in words) ([1]; ganglioside titrated in GLLs, cells treated with neuraminidase S) |
| --- | --- | --- | --- | --- | --- | --- | --- | --- |
| GD1a | 0.05 and 0.02 and 0.03 | 7.1 and 6.68 and 9.94 and 10.73 and 13.26 | 13.17 and 9.49 and 10.37 and 14.33 and 18.05 | 37.34 and 37.32 and 38.57 and 41.15 and 44.1 | 28.61 and 32.95 and 30.67 and 25.13 and 23.55 | 6.47 and 10.42 and 11.8 and 5.25 and 10.13 | 8.88 and 7.01 and 5.82 and 9.99 and 5.45 | – |
| GD1b | 0 and -0.03 and -0.01 | – | – | – | – | – | – | – |
| GD3 | 1.01 and 0.98 and 1.03 | 10.57 and 10.04 and 18 and 18.66 and 20.44 | 9.49 and 6.85 and 10.11 and 9.9 and 7.11 | 36.87 and 29.95 and 29.9 and 34.98 and 32.24 | 33.08 and 30.39 and 25.39 and 23.72 and 21.46 | -0.64 and 18.58 and 8.22 and 12.6 and 8.15 | 6.08 and 3.44 and 4.47 and 3.34 and 3.26 | decreased above an optimal ganglioside content |
| GM1 | -0.1 and -0.11 and -0.08 | 6.49 and 5.21 and 2.94 and 8.58 and 5.66 | 5.66 and 12.97 and 11.61 and 4.8 and 8.91 | 17.43 and 40.61 and 36.66 and 31.85 and 32.16 | 18.34 and 20.42 and 17.75 and 12.02 and 17.78 | 2.83 and 4.02 and 10.31 and 3.55 and 12.57 | 6.6 and 6.11 and 3.97 and 6.44 and 3.68 | – |
| GM2 | -0.02 and 0 (2×) | – | – | – | – | – | – | – |
| GM3 | -0.16 and -0.14 and -0.13 | – | – | – | – | – | – | – |
| GM4 | -0.07 and -0.06 and -0.04 | – | – | – | – | – | – | – |
| GQ1b | 1.41 and 1.39 and 1.38 | 15.3 and 24.18 and 22.56 and 26.04 and 30.34 | 10.86 and 11.87 and 9.36 and 23.13 and 11.98 | 25.13 and 35.2 and 35.69 and 28.06 and 30.69 | 19.03 and 15.89 and 21.18 and 22.9 and 35.39 | 6.14 and 4.56 and 5.96 and 16.03 and 20.32 | 6.93 and 2.97 and 4.43 and 6.13 and 5.67 | – |
| GT1b | 0.54 and 0.42 and 0.56 | – | – | – | – | – | – | – |
